For one assay, the target named is T1, dopamine (DA) uptake (Rattus norvegicus, UniProt P23977).
T1 construct: synaptosomal preparations were made from either whole brain (5-HT), striatum (DA) or hypothalamus (NE); from tissue; host or cells: rat striatum synaptosomes
Description: biochemical. To be noted: read-out: Uptake Inhibition % at 500 nM DA. How it is done:
(§1) The effects of arylbicyclo[3.1.0]hexylamines of the invention for inhibiting transport of norepinephrine (NE) and/or dopamine (DA) and/or serotonin (5-HT) were evaluated using preparations of synaptosomes from different regions of the rat brain according to previously-reported techniques.
(§2) Whole brains were obtained from normal rats, and synaptosomal preparations were made from either whole brain (5-HT), striatum (DA) or hypothalamus (NE) by gentle disruption in 10 volumes (w/v) of 0.32 M sucrose (0-4° C.) using a Teflon-glass homogenizer. The homogenate was then centrifuged at 1000×g for 10 min. The supernatant was retained and centrifuged at 23000 g for 20 min. The resulting pellet was gently resuspended in 200 volumes of 0.32 M sucrose (0-4° C.) using a teflon-glass homogenizer. Aliquots (250 μL) of this preparation were added to tubes, along with 0.2 μCi/mL of [^3H]5-HT, [^3H]DA, or [^3H]NE, 200 μL of selected 1-arylbicyclo[3.1.0]hexanamine test compounds (to yield final concentrations of 500 nM) and 1 mL of Krebs-Ringer bicarbonate buffer (pH 7.4). […] At the end of this period, the assay was terminated by rapid filtration over Whatman GF/C glass fiber filters. The filters were rinsed 3 times with 4 ml of Krebs-Ringer bicarbonate buffer (0-4° C.), and the radioactivity retained on the filters was measured by liquid scintillation spectrometry.

A further assay addresses T2, serotonin (5-HT) uptake (Rattus norvegicus, UniProt P31652).
T2 construct: synaptosomal preparations were made from either whole brain (5-HT), striatum (DA) or hypothalamus (NE); from tissue; host or cells: rat whole brain synaptosomes
Description: biochemical. The following applies: read-out: Uptake Inhibition % at 500 nM 5-HT. Here is the method: as §1, §2

In assay [1] the target is T3, norepinephrine (NE) uptake (Rattus norvegicus, UniProt Q63380).
T3 construct: synaptosomal preparations were made from either whole brain (5-HT), striatum (DA) or hypothalamus (NE); from tissue; host or cells: rat hypothalamus synaptosomes
Description: Inhibition of [3H]NE uptake in rat hypothalamus synaptosomes. Type of assay: biochemical. To be noted: 500 nM, 20 min at 37° C. Here is the method: as §1, §2

T3 sequence (Q63380 1-617): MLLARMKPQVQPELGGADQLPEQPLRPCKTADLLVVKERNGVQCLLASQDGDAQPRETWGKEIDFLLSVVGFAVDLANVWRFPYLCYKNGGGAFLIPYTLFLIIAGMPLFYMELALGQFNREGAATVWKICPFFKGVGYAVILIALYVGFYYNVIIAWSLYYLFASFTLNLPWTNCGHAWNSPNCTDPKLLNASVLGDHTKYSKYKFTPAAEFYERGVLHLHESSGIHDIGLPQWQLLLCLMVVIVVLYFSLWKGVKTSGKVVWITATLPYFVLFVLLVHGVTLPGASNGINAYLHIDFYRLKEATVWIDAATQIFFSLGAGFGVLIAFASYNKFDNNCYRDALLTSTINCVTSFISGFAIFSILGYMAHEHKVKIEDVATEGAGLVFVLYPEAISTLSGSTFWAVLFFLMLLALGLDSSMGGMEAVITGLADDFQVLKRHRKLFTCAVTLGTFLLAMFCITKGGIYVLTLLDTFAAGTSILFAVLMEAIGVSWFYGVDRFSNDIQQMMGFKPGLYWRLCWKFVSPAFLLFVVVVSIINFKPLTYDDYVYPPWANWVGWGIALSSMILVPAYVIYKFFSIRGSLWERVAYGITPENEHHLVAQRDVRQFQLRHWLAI
T2 sequence (P31652 whole entry): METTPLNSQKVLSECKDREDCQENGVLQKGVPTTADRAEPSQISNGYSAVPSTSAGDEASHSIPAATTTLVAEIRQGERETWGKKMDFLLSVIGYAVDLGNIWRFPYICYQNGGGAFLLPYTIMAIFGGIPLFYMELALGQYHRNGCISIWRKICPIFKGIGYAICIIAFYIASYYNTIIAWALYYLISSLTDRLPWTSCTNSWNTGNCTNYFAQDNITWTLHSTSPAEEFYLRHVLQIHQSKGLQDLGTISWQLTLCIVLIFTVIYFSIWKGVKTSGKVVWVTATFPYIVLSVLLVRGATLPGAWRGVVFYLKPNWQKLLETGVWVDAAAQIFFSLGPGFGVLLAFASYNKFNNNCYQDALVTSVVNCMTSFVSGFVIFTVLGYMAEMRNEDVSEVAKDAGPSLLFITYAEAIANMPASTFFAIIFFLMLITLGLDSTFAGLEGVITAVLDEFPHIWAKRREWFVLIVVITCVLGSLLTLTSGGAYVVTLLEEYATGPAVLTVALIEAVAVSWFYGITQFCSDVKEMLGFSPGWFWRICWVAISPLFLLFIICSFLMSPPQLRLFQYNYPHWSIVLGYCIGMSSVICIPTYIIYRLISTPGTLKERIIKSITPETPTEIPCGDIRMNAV
T1 sequence (P23977 whole entry): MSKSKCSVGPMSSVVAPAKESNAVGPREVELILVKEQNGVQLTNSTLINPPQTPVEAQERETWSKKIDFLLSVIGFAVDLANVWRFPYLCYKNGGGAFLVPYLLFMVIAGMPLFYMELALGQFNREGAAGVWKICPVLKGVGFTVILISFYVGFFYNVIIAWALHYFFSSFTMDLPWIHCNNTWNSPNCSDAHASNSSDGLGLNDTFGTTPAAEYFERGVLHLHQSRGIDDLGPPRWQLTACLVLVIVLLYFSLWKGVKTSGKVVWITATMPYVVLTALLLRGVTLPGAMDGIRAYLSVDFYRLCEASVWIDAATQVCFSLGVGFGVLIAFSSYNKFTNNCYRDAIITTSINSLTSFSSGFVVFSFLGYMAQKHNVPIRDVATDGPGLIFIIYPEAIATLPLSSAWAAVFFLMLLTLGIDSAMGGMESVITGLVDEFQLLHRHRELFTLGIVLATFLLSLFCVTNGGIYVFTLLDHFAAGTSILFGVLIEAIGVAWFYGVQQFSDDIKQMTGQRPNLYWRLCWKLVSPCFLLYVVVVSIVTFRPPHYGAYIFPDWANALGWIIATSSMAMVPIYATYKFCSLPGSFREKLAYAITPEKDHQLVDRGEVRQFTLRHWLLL

On to `NC1C[C@H]2C[C@]2(c2cccc3ccccc23)C1` (stereo partly drawn) [5-p-tolylbicydo[3.1.0]hexan-2-amine], for which the inhibition at 0.5 µM on dopamine (DA) uptake turned out to be 39%; at serotonin (5-HT) uptake, 74%; in assay [1] it was 42%.
The matching figures for `NC1C[C@H]2C[C@]2(c2ccc(Cl)c(Cl)c2)C1` (stereo partly drawn): 83%, 75% and 59%.

(Values after US20080269348A1, “Novel Arylbicyclo[3.1.0]Hexylamines And Methods And Compositions For Their Preparation And Use” (priority 2006, published 2008).)
